Assay results as given in patent US20140121216A1, “INDOLEAMINE DERIVATIVES FOR THE TREATMENT OF CENTRAL NERVOUS SYSTEM DISEASES” (Adamed Sp. z o.o., priority 2011, published 2014).

Key:
[1] = target: T1, M3 muscarinic receptors, human recombinant (CHO cells) (Homo sapiens, UniProt P20309); assay: Binding assay, M3 muscarinic receptor ([3H]4-DAMP); conditions: compound 1×10^−6 M
T1 construct: expressed in transfected cells; host or cells: CHO cells
Experimental: (§1) Moreover, ability of the compounds of the invention to block potassium channel hERG was tested.
(§2) The specific ligand binding to the receptors is defined as the difference between the total binding and the non-specific binding determined in the presence of an excess of unlabelled ligand.
(§3) The inhibition constants (Ki) were calculated using the Cheng Prusoff equation (Ki=IC50/(1+(L/KD)), where L=concentration of radioligand in the assay, and KD=affinity of the radioligand for the receptor). A Scatchard plot is used to determine the Kd. The IC50 values (concentration causing a half-maximal inhibition of control specific binding) and Hill coefficients (nH) were determined by non-linear regression analysis of the competition curves generated with mean replicate values using Hill equation curve fitting (Y=D+[(A−D)/(1+(C/C50)^nH)], where Y=specific binding, D=minimum specific binding, A=maximum specific binding, C=compound concentration, C50=IC50, and nH=slope factor). This analysis was performed using a software developed at Cerep (Hill software) and validated by comparison with data generated by the commercial software SigmaPlot® 4.0 for Windows® (©1997 by SPSS Inc.).
Experimental conditions for tests are given in Table 10, and results of tests for representative compounds are given in Table 11.

[2] = target: T2, 5-HT2C receptor, human recombinant (HEK-293 cells) (Homo sapiens, UniProt P28335); assay: Binding assay, 5-HT2C receptor ([3H]mesulergine); conditions: for 5-HT2C [%] binding assay result: compound 1×10^−6 M
T2 construct: expressed in transfected cells; host or cells: HEK-293 cells
T2 sequence (P28335 33-458): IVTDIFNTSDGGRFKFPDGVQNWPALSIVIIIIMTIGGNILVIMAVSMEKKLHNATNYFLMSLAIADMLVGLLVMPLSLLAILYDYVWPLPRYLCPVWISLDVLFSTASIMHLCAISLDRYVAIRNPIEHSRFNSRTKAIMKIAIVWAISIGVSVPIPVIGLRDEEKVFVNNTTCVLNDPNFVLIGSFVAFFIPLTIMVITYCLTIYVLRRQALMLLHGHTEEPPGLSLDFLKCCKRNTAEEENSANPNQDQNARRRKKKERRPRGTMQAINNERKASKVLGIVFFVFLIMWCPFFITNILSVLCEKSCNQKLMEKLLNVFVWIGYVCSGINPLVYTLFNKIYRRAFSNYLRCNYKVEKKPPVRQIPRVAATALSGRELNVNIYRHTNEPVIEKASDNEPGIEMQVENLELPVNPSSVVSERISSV
Experimental: as §1, §2
as §3, with “factor).” for “factor). This analysis was performed using a software developed at Cerep (Hill software) and validated by comparison with data generated by the commercial software SigmaPlot® 4.0 for Windows® (©1997 by SPSS Inc.).”

[3] = target: T3, 5-HT1A (h), human recombinant (CHO cells) (Homo sapiens, UniProt P08908); assay: Cellular functional assay 5-HT1A (h) agonism; format: cell-based; conditions: compound 1×10^−6 M; control 100 nM 8-OHDPAT
T3 construct: expressed in transfected cells; host or cells: CHO cells
T3 sequence (P08908 1-422): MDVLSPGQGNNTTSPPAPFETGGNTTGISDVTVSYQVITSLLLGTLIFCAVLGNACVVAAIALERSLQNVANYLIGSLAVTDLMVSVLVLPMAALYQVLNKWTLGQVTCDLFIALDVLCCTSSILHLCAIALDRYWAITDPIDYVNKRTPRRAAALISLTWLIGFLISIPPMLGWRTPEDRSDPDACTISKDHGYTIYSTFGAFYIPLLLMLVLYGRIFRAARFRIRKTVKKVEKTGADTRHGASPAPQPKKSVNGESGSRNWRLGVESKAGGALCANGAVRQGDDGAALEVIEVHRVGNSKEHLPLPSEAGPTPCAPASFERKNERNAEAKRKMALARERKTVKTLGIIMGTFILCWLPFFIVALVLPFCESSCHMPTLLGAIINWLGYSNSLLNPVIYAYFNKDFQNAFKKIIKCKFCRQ
Experimental: (§4) The results are expressed as a percent of control specific agonist response ((measured specific response/control specific agonist response)×100) obtained in the presence of tested compound.
(§5) The EC50 values (concentration producing a half-maximal specific response) and IC50 values (concentration causing a half-maximal inhibition of the control specific agonist response) were determined by non-linear regression analysis of the concentration-response curves generated with mean replicate values using Hill equation curve fitting (Y=D+[(A−D)/(1+(C/C50)nH)], where Y=specific response, D=minimum specific response, A=maximum specific response, C=compound concentration, and C50=EC50 or IC50, and nH=slope factor).
(§6) For the antagonists, the apparent dissociation constants (Kb) were calculated using the modified Cheng Prusoff equation (Kb=IC50/(1+(A/EC50A)), where A=concentration of reference agonist in the assay, and EC50A=EC50 value of the reference agonist).

[4] = target: T4, D2 receptor, human recombinant (GeneBLAzer D2-Gqo5 CHO-K1 DA) (Homo sapiens, UniProt P14416); assay: Binding assay, dopaminergic D2 receptor ([3H]methylspiperone); conditions: read-out: Inhibition constant Ki D2
T4 construct: purchased Invitrogen; host or cells: CHO-K1 (GeneBLAzer D2-Gqo5 CHO-K1 DA)
Experimental: as §1, §2
as §3, with “factor).” for “factor). This analysis was performed using a software developed at Cerep (Hill software) and validated by comparison with data generated by the commercial software SigmaPlot® 4.0 for Windows® (©1997 by SPSS Inc.).”

[5] = target: T5, α2C adrenergic receptors, human recombinant (CHO cells) (Homo sapiens, UniProt P18825); assay: Binding assay, α2C adrenergic receptor ([3H]RX 821002); conditions: for α2C [%] affinity test result: compound 1×10^−6 M; for Ki: read-out: Inhibition constant Ki α2C
T5 construct: expressed in transfected cells; host or cells: CHO cells
T5 sequence (P18825 1-462): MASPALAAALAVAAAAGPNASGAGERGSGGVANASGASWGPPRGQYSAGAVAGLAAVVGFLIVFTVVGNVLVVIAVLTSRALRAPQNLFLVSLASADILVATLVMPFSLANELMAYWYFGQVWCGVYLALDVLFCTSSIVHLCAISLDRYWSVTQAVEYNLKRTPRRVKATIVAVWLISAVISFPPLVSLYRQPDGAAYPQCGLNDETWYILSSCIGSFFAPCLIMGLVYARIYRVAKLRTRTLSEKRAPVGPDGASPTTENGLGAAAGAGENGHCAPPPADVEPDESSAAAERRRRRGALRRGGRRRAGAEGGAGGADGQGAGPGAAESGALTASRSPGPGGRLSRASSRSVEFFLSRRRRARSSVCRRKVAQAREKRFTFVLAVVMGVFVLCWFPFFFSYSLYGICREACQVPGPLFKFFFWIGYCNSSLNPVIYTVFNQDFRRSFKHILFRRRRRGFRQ
Experimental: as §1, §2, §3
Experimental conditions for tests are given in Table 7, and results of tests for representative compounds are given in Tables 8a and 8b (α1 receptors) and in Tables 9a and 9b (α2C receptors).

[6] = target: T6, 5-HT2A (h), human recombinant (HEK-293 cells) (Homo sapiens, UniProt P28223); assay: Cellular functional assay 5-HT2A (h) antagonism; format: cell-based; conditions: compound 1×10^−6 M; stimulus serotonin 100 nM
T6 construct: expressed in transfected cells; host or cells: HEK-293 cells
Experimental: as §4, §5, §6

T1 sequence (P20309 whole entry): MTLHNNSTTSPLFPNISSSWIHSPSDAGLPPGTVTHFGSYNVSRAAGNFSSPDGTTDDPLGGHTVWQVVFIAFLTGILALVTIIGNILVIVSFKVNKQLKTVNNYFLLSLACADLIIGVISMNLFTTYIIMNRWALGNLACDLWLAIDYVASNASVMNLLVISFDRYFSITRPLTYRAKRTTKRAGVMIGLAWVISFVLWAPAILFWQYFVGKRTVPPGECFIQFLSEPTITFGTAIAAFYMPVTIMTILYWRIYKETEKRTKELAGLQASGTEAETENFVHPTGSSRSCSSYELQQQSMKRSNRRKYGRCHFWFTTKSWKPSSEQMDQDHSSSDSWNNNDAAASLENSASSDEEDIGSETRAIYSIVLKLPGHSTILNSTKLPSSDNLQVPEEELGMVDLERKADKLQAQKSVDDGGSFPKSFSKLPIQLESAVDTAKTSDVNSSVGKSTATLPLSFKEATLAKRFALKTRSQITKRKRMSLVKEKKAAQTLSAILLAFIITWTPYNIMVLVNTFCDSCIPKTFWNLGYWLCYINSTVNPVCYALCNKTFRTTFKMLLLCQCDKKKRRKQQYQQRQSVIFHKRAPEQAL
T6 sequence (P28223 whole entry): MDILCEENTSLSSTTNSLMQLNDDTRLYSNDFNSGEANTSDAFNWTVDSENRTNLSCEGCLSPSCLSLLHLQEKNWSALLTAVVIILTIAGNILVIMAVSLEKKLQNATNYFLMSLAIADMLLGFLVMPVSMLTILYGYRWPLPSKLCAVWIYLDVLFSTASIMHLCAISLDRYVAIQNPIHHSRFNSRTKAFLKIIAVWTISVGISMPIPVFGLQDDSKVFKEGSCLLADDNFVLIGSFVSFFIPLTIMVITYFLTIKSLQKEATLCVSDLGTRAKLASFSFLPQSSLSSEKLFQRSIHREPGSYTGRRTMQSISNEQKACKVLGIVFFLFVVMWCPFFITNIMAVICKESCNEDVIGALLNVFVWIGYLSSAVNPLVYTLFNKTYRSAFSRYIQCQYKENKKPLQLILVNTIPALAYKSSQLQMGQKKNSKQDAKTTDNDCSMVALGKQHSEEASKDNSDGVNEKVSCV
T4 sequence (P14416 whole entry): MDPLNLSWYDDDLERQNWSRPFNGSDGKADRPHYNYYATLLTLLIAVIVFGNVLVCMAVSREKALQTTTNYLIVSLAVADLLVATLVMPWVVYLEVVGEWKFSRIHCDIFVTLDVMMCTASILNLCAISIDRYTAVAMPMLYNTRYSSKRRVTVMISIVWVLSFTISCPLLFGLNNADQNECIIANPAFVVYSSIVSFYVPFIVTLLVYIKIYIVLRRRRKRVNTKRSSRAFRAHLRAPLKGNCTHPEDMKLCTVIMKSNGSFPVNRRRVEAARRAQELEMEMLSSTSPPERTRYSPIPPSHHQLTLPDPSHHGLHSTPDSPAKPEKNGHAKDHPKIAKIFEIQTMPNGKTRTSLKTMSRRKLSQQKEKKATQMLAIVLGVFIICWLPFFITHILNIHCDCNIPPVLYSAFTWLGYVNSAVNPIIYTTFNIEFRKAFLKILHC

SMILES	M3 [%] affinity test result [1]	5-HT2C [%] binding assay result [2]	5-HT1A-ag [%] [3]	Ki [4]	α2C [%] affinity test result [5]	Ki [5]	5-HT2A-antag [%] [6]	Ki ([2]; read-out: Inhibition constant Ki 5-HT2C)
O=C1CCc2ccc(OCCCN3CCN(c4cccc5c4ccn5S(=O)(=O)c4ccccc4)CC3)cc2N1 [Compound 23, 7-[3-[4-[1-(Benzensulphonyl)indol-4-yl]piperazin-1-yl]propoxy]-3,4-dihydro-1H-quinolin-2-one]	16%	0%	69%	32 nM	32%	440 nM		
O=C1CCc2ccc(OCCCCN3CCN(c4cccc5c4ccn5S(=O)(=O)c4ccccc4)CC3)cc2N1 [Compound 24, 7-(4-(4-(1-(Phenylsulphonyl)-1H-indol-4-yl)piperazin-1-yl)butoxy)-3,4-dihydroquinolin-2(1H)-one]	37%	48%	69.7%	1.3 nM	78%	150 nM	34.2%	610 nM
O=C1CCc2ccc(OCCCCN3CCN(c4cccc5c4ccn5Cc4cccc(F)c4)CC3)cc2N1 [Compound 63, 7-[4-[4-[1-[(3-Fluorophenyl)methyl]indol-4-yl]piperazin-1-yl]butoxy]-3,4-dihydro-1H-quinolin-2-one]		89%	26%		100%		63%	
O=C1CCc2ccc(OCCCN3CCN(c4cccc5c4ccn5Cc4ccccc4)CC3)cc2N1 [Compound 4, 7-[3-[4-(1-Benzylindol-4-yl)piperazin-1-yl]propoxy]-3,4-dihydro-1H-quinolin-2-one]		73%	63%		93%		17%	
O=C1CCc2ccc(OCCCCN3CCN(c4cccc5c4ccn5Cc4ccccc4)CC3)cc2N1 [Compound 5, 7-(4-(4-(1-Benzyl-1H-indol-4-yl)piperazin-1-yl)butoxy)-3,4-dihydroquinolin-2(1H)-one]		86%	66%		93%		66%	
O=C1CCc2ccc(OCCCCN3CCN(c4cccc5c4ccn5Cc4cccc(Cl)c4)CC3)cc2N1 [Compound 67, 7-[4-[4-[1-[(3-Chlorophenyl)methyl]indol-4-yl]piperazin-1-yl]butoxy]-3,4-dihydro-1H-quinolin-2-one]		76%	23%		97%		34%	
NC(=O)c1ccccc1OCCCN1CCN(c2cccc3c2ccn3S(=O)(=O)c2ccccc2)CC1 [Compound 72, 2-[3-[4-[1-(Benzenesulfonyl)indol-4-yl]piperazin-1-yl]propoxy]-benzamide]	23%	35%	16%	3.2 nM	74%		45%	
